Patent US11028072B2, “2,4-diamino-6-ethylpyrimidine derivatives with antimalarial activities against Plasmodium falciparum” (National Science and Technology Development Agency, priority 2015, dated 2021)
Structures can show the parent of a compound that is named as a salt. Where two headings read alike, the source gives them in different places.

Assays:
wild type (WT) pfDHFR = wild type (WT) pfDHFR (Plasmodium falciparum, UniProt P13922, N108S/R59C); experiment: Inhibition of wild type pfDHFR (Ki); format: biochemical
Sequence of wild type (WT) pfDHFR (P13922 whole entry R59C/N108S): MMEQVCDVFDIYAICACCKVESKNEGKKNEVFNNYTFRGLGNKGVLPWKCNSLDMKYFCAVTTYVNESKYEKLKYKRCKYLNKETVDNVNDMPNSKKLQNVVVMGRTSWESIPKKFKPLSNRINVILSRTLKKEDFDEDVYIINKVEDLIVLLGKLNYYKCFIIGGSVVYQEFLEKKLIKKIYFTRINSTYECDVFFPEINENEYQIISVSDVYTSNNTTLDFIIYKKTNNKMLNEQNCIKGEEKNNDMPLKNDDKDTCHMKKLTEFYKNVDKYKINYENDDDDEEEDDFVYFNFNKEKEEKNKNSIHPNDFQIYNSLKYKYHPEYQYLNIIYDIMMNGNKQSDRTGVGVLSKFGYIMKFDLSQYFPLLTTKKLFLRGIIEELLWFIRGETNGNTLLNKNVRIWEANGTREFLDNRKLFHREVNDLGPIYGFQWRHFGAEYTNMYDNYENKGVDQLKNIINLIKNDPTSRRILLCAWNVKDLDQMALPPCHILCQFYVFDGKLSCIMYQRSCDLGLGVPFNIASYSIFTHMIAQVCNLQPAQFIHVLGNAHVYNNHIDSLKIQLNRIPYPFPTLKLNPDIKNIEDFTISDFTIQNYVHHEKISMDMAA
Method: (§1) The synthesized 2,4-diamino-6-ethylpyrimdine derivatives as the hydrochloride salts were tested for the activities against Plasmodium falciparum (P. falciparum) according to the standard methods. These include the inhibition of dihydrofolate reductase (DHFR) enzymes of P. falciparum including, wild type (WT) and quadruple mutants (N51IC59RS108NI164L) (QM). The inhibition was expressed as inhibition constants (Ki) in nano molar (nM).

[1] = biological target: quadruple mutant N51I + C59R + S108N + I164L (QM) pfDHFR (Plasmodium falciparum, UniProt P13922, I164L/N51I); experiment: Inhibition of quadruple mutant pfDHFR (Ki); format: biochemical
Sequence of quadruple mutant N51I + C59R + S108N + I164L (QM) pfDHFR (P13922 whole entry N51I/I164L): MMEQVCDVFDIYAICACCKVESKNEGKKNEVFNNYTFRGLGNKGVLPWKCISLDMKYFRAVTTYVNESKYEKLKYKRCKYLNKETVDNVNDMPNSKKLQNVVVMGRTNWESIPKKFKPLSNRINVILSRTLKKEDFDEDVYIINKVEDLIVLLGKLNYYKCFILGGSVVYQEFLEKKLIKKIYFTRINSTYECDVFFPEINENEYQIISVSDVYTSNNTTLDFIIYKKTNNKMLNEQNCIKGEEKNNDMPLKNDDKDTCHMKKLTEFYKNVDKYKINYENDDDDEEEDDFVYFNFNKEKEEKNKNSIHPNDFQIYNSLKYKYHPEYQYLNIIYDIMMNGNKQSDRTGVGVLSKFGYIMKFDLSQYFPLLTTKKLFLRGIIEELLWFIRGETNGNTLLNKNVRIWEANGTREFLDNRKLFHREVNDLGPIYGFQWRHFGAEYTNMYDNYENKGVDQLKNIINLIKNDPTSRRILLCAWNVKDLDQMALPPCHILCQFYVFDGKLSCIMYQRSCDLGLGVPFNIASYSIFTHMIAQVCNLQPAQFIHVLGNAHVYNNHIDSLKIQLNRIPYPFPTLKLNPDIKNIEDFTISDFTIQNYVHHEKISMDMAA
Method: as §1

[2] = system: P. falciparum V1/S (N51I + C59R + S108 + I164L); experiment: microbe, parasite or virus in culture; format: cell-based, Plasmodium falciparum; conditions: Plasmodium falciparum, read-out: IC50 P. falciparum V1/S
Source text: (§2) In Vitro Antimalarial Activites Against P. falciparum and Cytotoxicity Towards Mammalian Cells (Vero Cells)

[3] = system: P. falciparum TM4/8.2 (wild type); experiment: microbe, parasite or virus in culture; format: cell-based, Plasmodium falciparum; conditions: Plasmodium falciparum, read-out: IC50 P. falciparum TM4/8.2 (WT)
Source text: as §2

[4] = biological target: T1, Human dihydrofolate reductase (hDHFR) (Homo sapiens, UniProt P00374); experiment: Inhibition of human dihydrofolate reductase (Ki); format: biochemical; conditions: human DHFR; hydrochloride salts
T1 sequence (P00374 1-187): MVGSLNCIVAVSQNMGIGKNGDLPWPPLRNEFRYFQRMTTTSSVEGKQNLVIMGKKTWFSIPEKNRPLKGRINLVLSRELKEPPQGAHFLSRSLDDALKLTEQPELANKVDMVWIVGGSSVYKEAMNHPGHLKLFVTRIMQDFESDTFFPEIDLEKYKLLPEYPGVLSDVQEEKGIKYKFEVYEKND

in vitro = conditions: African green monkey
Source text: as §2

[5] = in vitro, quadruple mutant strain V1/S
[6] = in vitro, wild-type strain TM4/8.2

Row | Structure (SMILES) | Ki (wild type (WT) pfDHFR) [µM] | Ki [1] [µM] | IC50 [2, 5] [µM] | IC50 [3, 6] [µM] | Ki [4] [µM] | IC50 (in vitro) [µM] | IC50 [2] [µM] | IC50 [3] [µM] | Ki hDHFR [4] | melting point [°C]
1 | CCc1nc(N)nc(N)c1OCc1csc(-c2cccc(OCC(=O)OCc3ccccc3)c2)n1 [Compound 63] | 0.00075 ± 0.0001 | 0.0339 ± 0.00185 | > 50 | 0.4 ± 0.07 | 0.118 ± 0.0148 | > 50 |  |  |  | 
2 | CCc1nc(N)nc(N)c1OCc1cc(-c2ccc(OC)cc2)no1 [Compound 42] | 0.00115 ± 0.00018 | 0.0644 ± 0.00759 | > 25 | 1.19 ± 0.36 | 1.66 ± 0.0767 | > 25 |  |  |  | 
3 | CCc1nc(N)nc(N)c1-c1cn(Cc2ccccc2)nn1 [Compound 3] | 0.0114 ± 0.00081 | 0.0139 ± 0.00198 |  |  | 3.14 ± 0.242 | > 50 | 19.9 ± 7.03 | 3.57 ± 1.25 |  | 
4 | CCc1nc(N)nc(N)c1OCc1cc(-c2ccc(F)cc2)no1 [Compound 34] | 0.00101 ± 5e-05 | 0.0776 ± 0.0148 |  |  | 1.08 ± 0.0937 | > 25 | 18.9 ± 4.44 | 1.6 ± 0.79 |  | 
5 | CCc1nc(N)nc(N)c1OCCCc1cc(-c2cccc(C(=O)OC)c2)no1 [Compound 48] | 0.00026 ± 7e-05 | 0.00087 ± 0.00015 | 0.1 ± 0.03 | 0.045 ± 0.0015 | 0.0252 ± 0.0089 | 0.76 |  |  |  | 
6 | CCc1nc(N)nc(N)c1OCc1cn(-c2ccccc2)nn1 [Compound 13] | 0.00327 ± 0.00028 | 0.377 ± 0.0205 | > 25 | 5.73 ± 0.35 |  | > 25 |  |  | High | 
7 | CCc1nc(N)nc(N)c1OCc1cn(Cc2ccc(C(=O)O)cc2)nn1 [Compound 29] | 0.0145 ± 0.00162 | 0.477 ± 0.0323 | > 25 | > 25 |  | > 25 |  |  | High | 
8 | CCc1nc(N)nc(N)c1OCc1csc(-c2cccc([N+](=O)[O-])c2)n1 [Compound 62] | 0.00074 ± 7e-05 | 0.0532 ± 0.00893 | 3.98 ± 0.52 | 0.46 ± 0.07 | 0.134 ± 0.00724 | 17.9 ± 6.23 |  |  |  | 
9 | CCc1nc(N)nc(N)c1OCCCc1cn(-c2ccc(C(=O)O)cc2)nn1 [Compound 25] | 0.00035 ± 4e-05 | 0.00352 ± 0.00073 |  |  | 0.0448 ± 0.00192 | 6.4 ± 1.08 | 4.65 ± 0.12 | 0.036 ± 0.01 |  | 
10 | CCc1nc(N)nc(N)c1OCc1csc(-c2ccc(C)cc2)n1 [Compound 67] | 0.00081 ± 5e-05 | 0.0273 ± 0.00145 | 19 ± 6.7 | 1.02 ± 0.53 | > 100 | 28.9 ± 5.74 |  |  |  | 
11 | CCc1nc(N)nc(N)c1OCCc1cn(-c2cccc(C(=O)O)c2)nn1 [Compound 20] | 0.00039 ± 6e-05 | 0.00173 ± 0.00018 | 1.74 ± 0.51 | 0.67 ± 0.34 | 0.0802 ± 0.00328 | > 25 |  |  |  | 
12 | CCc1nc(N)nc(N)c1OCc1csc(-c2cccc(C(=O)OC)c2)n1 [Compound 65] | 0.00051 ± 4e-05 | 0.0567 ± 0.00579 |  |  | 0.195 ± 0.0082 | > 50 | > 50 | 0.4 ± 0.08 |  | 
13 | CCc1nc(N)nc(N)c1-c1cn(CCOc2ccc(C(=O)OC)cc2)nn1 [Compound 10] | 0.00101 ± 4e-05 | 0.00696 ± 0.00112 | 21 ± 4.49 | 0.88 ± 0.36 |  | 38.9 ± 2.14 |  |  | High | 
14 | CCc1nc(N)nc(N)c1OCc1csc(-c2ccc(C(=O)OC)cc2)n1 [Compound 74] | 0.00065 ± 6e-05 | 0.034 ± 0.00542 |  |  | 0.447 ± 0.11 | > 50 | 15.9 ± 2.11 | 0.4 ± 0.13 |  | 
15 | CCc1nc(N)nc(N)c1OCCCc1cn(Cc2ccc(C(=O)O)cc2)nn1 [Compound 32] | 0.00036 ± 2e-05 | 0.00472 ± 0.00077 | 3.75 ± 0.43 | 0.087 ± 0.03 | 0.0543 ± 0.00105 | > 50 |  |  |  | 
16 | CCc1nc(N)nc(N)c1OCc1cc(-c2cccc([N+](=O)[O-])c2)no1 [Compound 39] | 0.00133 ± 0.00017 | 0.049 ± 0.00673 | 9.08 ± 1.05 | 1.16 ± 0.55 | > 100 | > 50 |  |  |  | 
17 | CCc1nc(N)nc(N)c1-c1cn(CCCOc2ccc(C(=O)OC)cc2)nn1 [Compound 12] | 0.00082 ± 6e-05 | 0.034 ± 0.00551 |  |  | 0.875 ± 0.0279 | 47.6 ± 6.27 | > 50 | 0.97 ± 0.4 |  | 
18 | CCc1nc(N)nc(N)c1-c1cn(Cc2ccc(C(=O)O)cc2)nn1 [Compound 5] | 0.00631 ± 0.0004 | 0.00761 ± 0.00066 | > 10 | 7.95 ± 1.38 | 0.196 ± 0.0207 | > 10 |  |  |  | 
19 | CCc1nc(N)nc(N)c1-c1cn(CCCc2ccccc2)nn1 [Compound 8] | 0.00282 ± 0.0001 | 0.0498 ± 0.00189 |  |  | 3.68 ± 0.48 | > 50 | 32.3 ± 3.06 | 5.58 ± 0.67 |  | 
20 | CCc1nc(N)nc(N)c1OCc1cc(-c2cccc(C(=O)O)c2)no1 [Compound 40] | 0.00128 ± 0.00013 | 0.00212 ± 0.00017 | 3.38 ± 1.06 | 0.28 ± 0.13 | 0.279 ± 0.0247 | > 50 |  |  |  | 
21 | CCc1nc(N)nc(N)c1OCc1cc(-c2cccc(OC)c2)no1 [Compound 38] | 0.00055 ± 0.0001 | 0.0228 ± 0.00309 | > 25 | 0.57 ± 0.19 | 1.08 ± 0.031 | > 25 |  |  |  | 

Row | Structure (SMILES) | Ki (wild type (WT) pfDHFR) [µM] | Ki [1] [µM] | IC50 [2, 5] [µM] | IC50 [3, 6] [µM] | Ki [4] [µM] | IC50 (in vitro) [µM] | IC50 [2] [µM] | IC50 [3] [µM] | Ki hDHFR [4] | melting point [°C]
22 | CCc1nc(N)nc(N)c1OCc1coc(-c2cccc(OCC(=O)OCc3ccccc3)c2)n1 [Compound 53] | 0.00083 ± 8e-05 | 0.0455 ± 0.00502 | > 10 | 1.76 ± 0.67 | 0.681 ± 0.0703 | > 10 |  |  |  | 
23 | CCc1nc(N)nc(N)c1OCc1csc(-c2ccc(OC)cc2)n1 [Compound 68] | 0.00046 ± 6e-05 | 0.016 ± 0.00127 |  |  | 0.186 ± 0.00466 | 43.5 ± 13.4 | 12.9 ± 5.71 | 0.45 ± 0.09 |  | 
24 | CCc1nc(N)nc(N)c1-c1cn(CCc2ccccc2)nn1 [Compound 7] | 0.00224 ± 0.0001 | 0.0701 ± 0.00692 |  |  | 3.22 ± 0.0862 | > 50 | > 50 | 2.62 ± 0.33 |  | 
25 | CCc1nc(N)nc(N)c1-c1cn(-c2ccccc2)nn1 [Compound 1] | 0.0497 ± 0.00418 | 6.02 ± 0.772 | > 50 | > 50 |  | > 50 |  |  | High | 
26 | CCc1nc(N)nc(N)c1OCc1coc(-c2cccc([N+](=O)[O-])c2)n1 [Compound 52] | 0.00263 ± 0.00026 | 0.0932 ± 0.025 | 15.1 ± 1.49 | 2.66 ± 0.31 | > 100 | > 50 |  |  |  | 
27 | CCc1nc(N)nc(N)c1OCc1cc(-c2ccc(C(F)(F)F)cc2)no1 [Compound 41] | 0.00429 ± 0.00031 |  | > 10 | 6.78 ± 2.21 | > 100 | > 10 |  |  |  | 
28 | CCc1nc(N)nc(N)c1OCCCc1cc(-c2cccc(C#N)c2)no1 (as salt: hydrochloride) [Compound 47] |  |  |  |  |  |  |  |  |  | 252 to 253
29 | CCc1nc(N)nc(N)c1-c1cn(Cc2ccc(C(=O)O)cc2)nn1 (as salt: hydrochloride) [Compound 5] |  |  |  |  |  |  |  |  |  | 270 to 272
30 | CCc1nc(N)nc(N)c1OCCCc1cn(Cc2ccc(C(=O)O)cc2)nn1 (as salt: hydrochloride) [Compound 32] |  |  |  |  |  |  |  |  |  | 211 to 212.5
31 | CCc1nc(N)nc(N)c1OCc1cc(-c2ccccc2)no1 (as salt: hydrochloride) [Compound 33] |  |  |  |  |  |  |  |  |  | 221.5 to 222.5
32 | CCc1nc(N)nc(N)c1OCCCc1cn(-c2ccc(C(=O)O)cc2)nn1 (as salt: hydrochloride) [Compound 25] |  |  |  |  |  |  |  |  |  | 239.5 to 241.5
33 | CCc1nc(N)nc(N)c1OCc1csc(-c2cccc([N+](=O)[O-])c2)n1 (as salt: hydrochloride) [Compound 62] |  |  |  |  |  |  |  |  |  | 235 to 236.5
34 | CCc1nc(N)nc(N)c1OCc1cn(Cc2ccc(C(=O)O)cc2)nn1 (as salt: hydrochloride) [Compound 29] |  |  |  |  |  |  |  |  |  | 223.8 to 224.8
35 | CCc1nc(N)nc(N)c1OCc1coc(-c2cccc(C)c2)n1 (as salt: hydrochloride) [Compound 51] |  |  |  |  |  |  |  |  |  | 225 to 226
36 | CCc1nc(N)nc(N)c1OCc1csc(-c2ccc(C(=O)OC)cc2)n1 (as salt: hydrochloride) [Compound 74] |  |  |  |  |  |  |  |  |  | 217 to 219
37 | CCc1nc(N)nc(N)c1OCc1coc(-c2cccc(OCC(=O)OCc3ccccc3)c2)n1 (as salt: hydrochloride) (hydrate or solvate) [Compound 53] |  |  |  |  |  |  |  |  |  | 163.5 to 164.5
38 | CCc1nc(N)nc(N)c1OCCc1csc(-c2ccccc2)n1 (as salt: hydrochloride) [Compound 76] |  |  |  |  |  |  |  |  |  | 215 to 217
39 | CCc1nc(N)nc(N)c1-c1cn(CCOc2ccc(Cl)cc2)nn1 (as salt: hydrochloride) [Compound 9] |  |  |  |  |  |  |  |  |  | 173.5 to 175
40 | CCc1nc(N)nc(N)c1OCCCc1cc(-c2cccc(C(F)(F)F)c2)no1 (as salt: hydrochloride) [Compound 46] |  |  |  |  |  |  |  |  |  | 216.5 to 218
41 | CCc1nc(N)nc(N)c1OCc1cc(-c2cccc([N+](=O)[O-])c2)no1 (as salt: hydrochloride) [Compound 39] |  |  |  |  |  |  |  |  |  | 179.5 to 181.5
